Data from ChEMBL document CHEMBL1201862, “PubChem BioAssay data set” (2004).
Active and inactive are the calls of the source.

Legend:
[1] = target: Cytochrome P450 2D6 (Homo sapiens, UniProt P10635);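 note: CYP2D6 member of a cytochrome P450 panel assay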
[2] = target: T1, Cytochrome P450 1A2 (Homo sapiens, UniProt P05177);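 note: PubChem cytochrome P450 panel assay, CYP1A2 panel member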
T1 sequence (P05177 whole entry): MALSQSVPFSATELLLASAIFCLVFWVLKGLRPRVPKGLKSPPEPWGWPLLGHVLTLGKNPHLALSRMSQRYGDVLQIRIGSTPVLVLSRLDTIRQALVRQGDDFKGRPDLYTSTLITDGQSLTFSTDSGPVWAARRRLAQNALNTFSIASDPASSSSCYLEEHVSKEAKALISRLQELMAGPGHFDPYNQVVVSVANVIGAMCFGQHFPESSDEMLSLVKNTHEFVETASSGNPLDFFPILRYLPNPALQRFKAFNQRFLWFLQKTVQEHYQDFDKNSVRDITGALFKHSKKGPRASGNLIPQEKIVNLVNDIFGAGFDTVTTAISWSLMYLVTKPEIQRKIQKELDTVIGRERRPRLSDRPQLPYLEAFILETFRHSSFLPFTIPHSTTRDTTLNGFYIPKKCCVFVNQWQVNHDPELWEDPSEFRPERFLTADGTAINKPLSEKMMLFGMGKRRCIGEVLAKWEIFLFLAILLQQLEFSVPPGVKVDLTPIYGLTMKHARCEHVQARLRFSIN

[3] = cytotoxicity in HEK-293T NF-kB-Luc cells, dose response, cytotoxicity control for B/T-cell NF-kB inhibitor project, cell-based, uHTS hits (AID 489019); format: functional;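 note: IC50 reflects cytotoxicity as loss of cell viability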
[4] = C. albicans growth with fluconazole, confirmation, fluorescence, retest (AID 2467); format: functional, cell-based
[5] = target: T2, Microphthalmia-associated transcription factor (Homo sapiens, UniProt O75030); assay: TRPM1 promoter luciferase signal decrease, dose response, MITF inhibitor project, cell-based, SK-MEL-5, cherry-picked, set 3 (AID 493073); format: functional
T2 sequence (O75030 whole entry): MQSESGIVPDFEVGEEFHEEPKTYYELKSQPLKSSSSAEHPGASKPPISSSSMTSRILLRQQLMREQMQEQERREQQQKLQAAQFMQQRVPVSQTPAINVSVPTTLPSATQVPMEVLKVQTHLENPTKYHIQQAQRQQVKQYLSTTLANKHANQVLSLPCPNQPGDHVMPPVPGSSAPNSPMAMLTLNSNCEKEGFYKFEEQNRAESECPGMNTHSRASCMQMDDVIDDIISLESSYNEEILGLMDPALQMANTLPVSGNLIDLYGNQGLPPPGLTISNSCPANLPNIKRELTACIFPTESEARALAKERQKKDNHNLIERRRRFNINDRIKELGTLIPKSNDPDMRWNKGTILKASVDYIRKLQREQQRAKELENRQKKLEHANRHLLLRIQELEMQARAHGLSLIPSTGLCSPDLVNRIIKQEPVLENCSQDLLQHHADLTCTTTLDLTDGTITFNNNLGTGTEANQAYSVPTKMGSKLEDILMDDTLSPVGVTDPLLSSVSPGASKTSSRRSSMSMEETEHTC

[6] = tested on: A-375; assay: MITF: Counter assay: A375 proliferation Measured in Cell-Based System Using Plate Reader - 2084-03_Inhibitor_Dose_DryPowder_Activity. [Related pubchem assays (depositor defined):AID488944]; format: functional; settings: Homo sapiens
[7] = NIH-3T3 fibroblast cytotoxicity, dose response, cytotoxicity control, cell-based, fluorescence, Alamar Blue, secondary assay (AID 2327); format: functional;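 note: NIH-3T3 mouse fibroblasts cultured with fluconazole at 8 µg/mL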
[8] = tested on: Jurkat; assay: antigen receptor-induced NF-kB inhibitors, dose response, Jurkat, luciferase reporter, luminescence, B- and T-cell (AID 489004); format: functional, cell-based; settings: Homo sapiens;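 note: NF-kB luciferase reporter Jurkat cells stimulated with PMA plus ionomycin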
[9] = tested on: INS1; assay: beta cell apoptosis inhibitors, cytokine rescue, dose response, luminescence, retest (AID 449756); format: functional, cell-based; settings: Rattus norvegicus;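 note: cell death triggered by IL-1 beta plus TNF-alpha plus IFN-gamma mixture; protective hits raise ATP signal compared with cytokine alone wells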
[10] = target: UDP-galactopyranose mutase (Mycobacterium tuberculosis, UniProt P9WIQ1); assay: Inhibitors of Mycobacterium tuberculosis UDP-galactopyranose mutase (UGM) enzyme Measured in Biochemical System Using Plate Reader - 2105-02_Inhibitor_Dose_CherryPick_Activity. [Related pubchem assays (depositor defined):AID504439]
[11] = growth suppression of beta-catenin-knockout colon cells, dose response, cell-based, HCT116, human colon tumor (AID 1045); format: functional;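 note: HCT116 colon tumor cells with beta catenin knocked out; cells exposed to compound for 60 hours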
[12] = target: T3, RNA-binding protein pos-1 (Caenorhabditis elegans, UniProt G5EF15); assay: inhibitors of POS-1/mex-3 RNA binding, dose response, biochemical, fluorescence polarization (AID 1964);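 note: purified POS-1 fused to maltose binding protein made in E. coli; potency of compounds blocking POS-1 binding to fluorescent RNA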
T3 sequence (G5EF15 whole entry): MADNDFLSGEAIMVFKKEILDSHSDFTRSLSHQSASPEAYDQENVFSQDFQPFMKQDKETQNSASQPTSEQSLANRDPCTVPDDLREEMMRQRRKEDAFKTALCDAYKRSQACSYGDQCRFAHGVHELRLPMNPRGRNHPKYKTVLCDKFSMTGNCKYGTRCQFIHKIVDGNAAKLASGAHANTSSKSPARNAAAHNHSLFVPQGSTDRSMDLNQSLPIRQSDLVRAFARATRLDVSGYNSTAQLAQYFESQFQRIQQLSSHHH

[13] = growth suppression of PTEN-null colon cells, dose response, cell-based, HCT116 PTEN knockout (AID 1047); format: functional;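 note: HCT116 colon tumor cells with PTEN knocked out; cells exposed to compound for 60 hours before readout; potency for loss of cell viability measured by luminescence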
[14] = Luminescence Cell-Based Dose Confirmation HTS to Identify Activators of 5'UTR Stem-Loop Driven Alpha-Synuclein mRNA Translation in H4 Neuroglioblastoma Cells. [Related pubchem assays: 1829 (Project Summary), 1814 (Primary HTS)]; format: functional
[15] = Luminescence Cell-Based Dose Response HTS to Identify Activators of Luciferase Translation or Activity in H4 […] Cells. [Related pubchem assays: 1829 (Project Summary), 1814 (Primary HTS)]; format: functional
[16] = tested on: H4; assay: Luminescence Cell-Based Dose Response HTS to Identify Activators of 5'UTR Stem-Loop Driven Prion Protein mRNA Translation in H4 Neuroglioblastoma Cells. [Related pubchem assays: 1829 (Project Summary), 1814 (Primary HTS)]; format: functional; settings: Homo sapiens
[17] = target: Oxytocin receptor (Homo sapiens, UniProt P30559); assay: Counterscreen for vasopressin 1 receptor (V1R) agonists: Fluorescence-based cell-based high throughput dose response assay for agonists of the Oxytocin Receptor (OXTR). [Related pubchem assays: 2435 (Primary screen (OXTR agonists in singlicate)), 434964 (Confirmation screen (V1R agonists in triplicate)), 434969 (Counterscreen (OXTR agonists in …; format: functional
[18] = target: T4, Zinc finger protein mex-5 (Caenorhabditis elegans, UniProt Q9XUB2); assay: MEX-5/TCR-2 RNA interaction inhibitors, dose response, biochemical, C. elegans, fluorescence polarization (AID 1960)
T4 sequence (Q9XUB2 whole entry): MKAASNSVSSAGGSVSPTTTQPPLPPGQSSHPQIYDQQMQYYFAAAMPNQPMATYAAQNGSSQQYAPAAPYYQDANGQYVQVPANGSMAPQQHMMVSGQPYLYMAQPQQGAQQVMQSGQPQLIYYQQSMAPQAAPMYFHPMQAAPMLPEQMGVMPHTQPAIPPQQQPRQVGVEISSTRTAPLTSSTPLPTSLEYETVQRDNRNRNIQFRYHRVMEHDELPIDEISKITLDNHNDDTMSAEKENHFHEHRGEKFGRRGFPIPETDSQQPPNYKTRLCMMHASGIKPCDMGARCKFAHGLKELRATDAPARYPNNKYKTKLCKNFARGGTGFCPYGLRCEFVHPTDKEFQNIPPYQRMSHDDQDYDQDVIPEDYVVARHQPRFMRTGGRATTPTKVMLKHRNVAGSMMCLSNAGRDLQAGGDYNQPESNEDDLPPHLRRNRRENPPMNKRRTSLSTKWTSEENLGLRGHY

[19] = target: Vasopressin V1a receptor (Homo sapiens, UniProt P37288); assay: Fluorescence-based cell-based high throughput dose response screening assay for agonists of the vasopressin 1 receptor (V1R).; format: functional
[20] = target: T5, ORF 73 (Human herpesvirus 8, UniProt O40947); assay: inhibitors of C-LANA binding to LBS DNA, dose response, biochemical, fluorescence polarization, cherry-picked samples (AID 504725); parameters: species or system Human gammaherpesvirus 8;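 note: fluorescence polarization of a labeled DNA duplex reporting LANA DNA binding; potency is for inhibitors that block LANA binding to the DNA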
T5 sequence (O40947 whole entry): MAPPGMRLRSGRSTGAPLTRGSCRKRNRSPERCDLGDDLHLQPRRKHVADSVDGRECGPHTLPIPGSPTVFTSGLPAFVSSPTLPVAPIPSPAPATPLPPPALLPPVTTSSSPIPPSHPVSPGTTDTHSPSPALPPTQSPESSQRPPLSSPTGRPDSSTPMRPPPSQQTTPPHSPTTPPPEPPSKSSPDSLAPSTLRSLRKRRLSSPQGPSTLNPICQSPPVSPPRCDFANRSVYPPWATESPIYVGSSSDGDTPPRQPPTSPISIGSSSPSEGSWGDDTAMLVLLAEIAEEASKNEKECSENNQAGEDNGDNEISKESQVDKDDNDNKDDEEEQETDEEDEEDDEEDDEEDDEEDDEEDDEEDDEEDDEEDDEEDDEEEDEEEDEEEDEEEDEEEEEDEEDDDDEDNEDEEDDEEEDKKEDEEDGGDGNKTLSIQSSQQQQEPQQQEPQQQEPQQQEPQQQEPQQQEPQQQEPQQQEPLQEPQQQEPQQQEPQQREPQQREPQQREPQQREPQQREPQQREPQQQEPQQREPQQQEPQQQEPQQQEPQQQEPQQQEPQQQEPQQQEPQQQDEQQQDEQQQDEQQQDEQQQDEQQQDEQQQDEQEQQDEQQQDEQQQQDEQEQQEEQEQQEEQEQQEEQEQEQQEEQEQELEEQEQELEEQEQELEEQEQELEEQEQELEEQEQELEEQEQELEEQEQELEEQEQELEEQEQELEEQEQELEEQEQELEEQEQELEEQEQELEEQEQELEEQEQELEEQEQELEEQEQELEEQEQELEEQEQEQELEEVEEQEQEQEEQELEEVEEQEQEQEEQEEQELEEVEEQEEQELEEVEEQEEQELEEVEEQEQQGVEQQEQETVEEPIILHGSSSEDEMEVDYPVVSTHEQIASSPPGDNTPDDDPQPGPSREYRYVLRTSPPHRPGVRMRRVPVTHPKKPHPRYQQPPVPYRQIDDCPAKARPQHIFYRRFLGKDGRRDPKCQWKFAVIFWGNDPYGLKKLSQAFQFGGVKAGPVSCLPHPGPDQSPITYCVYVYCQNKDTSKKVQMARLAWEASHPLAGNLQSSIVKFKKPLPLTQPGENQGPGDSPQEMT

[21] = target: DNA dC->dU-editing enzyme APOBEC-3A (Homo sapiens, UniProt P31941); assay: Dose Response confirmation of small molecule APOBEC3A DNA Deaminase Inhibitors via a fluorescence-based single-stranded DNA deaminase assay. [Related pubchem assays (depositor defined):AID493011, AID493024]; format: functional
[22] = target: DNA dC->dU-editing enzyme APOBEC-3G (Homo sapiens, UniProt Q9HC16); format: functional;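 note: Dose-response counterscreen measuring inhibition of APOBEC3G DNA deaminase activity, run while confirming APOBEC3A inhibitors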
[23] = target: Keap1/Nrf2 (Homo sapiens, UniProt Q14145); assay: Keap1-Nrf2 protein-protein interaction inhibitors, dose response, biochemical, fluorescence polarization, cherry-picked samples (AID 588683)
[24] = target: Cytochrome P450 3A4 (Homo sapiens, UniProt P08684);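 note: CYP3A4 tested as one member of a cytochrome P450 panel screen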
[25] = target: Phosphoethanolamine/phosphocholine phosphatase (Homo sapiens, UniProt Q8TCT1); assay: SAR assay for compounds that inhibit PHOSPHO1. [Related pubchem assays (depositor defined):AID1545, AID1565, AID1574]
[26] = target: T6, Phosphomannomutase 2 (Homo sapiens, UniProt O15305); assay: Counter screen SAR assay for PMM2 inhibitors via a fluorescence intensity assay. [Related pubchem assays (depositor defined):AID1545, AID1574]
T6 sequence (O15305 whole entry): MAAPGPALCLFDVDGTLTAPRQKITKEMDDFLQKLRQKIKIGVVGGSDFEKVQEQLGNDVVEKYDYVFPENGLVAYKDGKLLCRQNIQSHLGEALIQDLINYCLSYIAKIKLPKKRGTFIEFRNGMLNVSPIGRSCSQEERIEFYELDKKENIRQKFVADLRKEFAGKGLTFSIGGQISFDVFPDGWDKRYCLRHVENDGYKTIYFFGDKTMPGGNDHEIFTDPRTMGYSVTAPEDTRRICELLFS

[27] = target: T7, Mannose-6-phosphate isomerase (Homo sapiens, UniProt P34949); assay: PMI enzyme inhibitors, confirmation, biochemical, fluorescence intensity (AID 1535)
T7 sequence (P34949 whole entry): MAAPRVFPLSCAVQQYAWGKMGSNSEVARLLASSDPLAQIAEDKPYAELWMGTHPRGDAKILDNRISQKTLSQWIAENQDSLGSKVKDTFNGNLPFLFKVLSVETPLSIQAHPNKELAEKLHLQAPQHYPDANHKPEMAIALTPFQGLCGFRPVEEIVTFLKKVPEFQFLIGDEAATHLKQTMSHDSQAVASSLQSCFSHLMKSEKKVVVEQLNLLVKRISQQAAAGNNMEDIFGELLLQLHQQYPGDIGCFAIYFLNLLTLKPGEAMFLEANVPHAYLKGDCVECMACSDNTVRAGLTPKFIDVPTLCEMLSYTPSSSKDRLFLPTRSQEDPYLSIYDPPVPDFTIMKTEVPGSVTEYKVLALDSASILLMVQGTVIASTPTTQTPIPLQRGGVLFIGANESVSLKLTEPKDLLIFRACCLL

[28] = target: Kappa-type opioid receptor (Homo sapiens, UniProt P41145); assay: SAR analysis of small molecule agonists of the kappa opioid receptor via a luminescent beta-arrestin assay - Set 3. [Related pubchem assays (depositor defined):AID1777, AID1785, AID1786, AID1966, AID2133, AID2136, AID2284, AID2500]; format: functional
Chain of Kappa-type opioid receptor (P41145 whole entry): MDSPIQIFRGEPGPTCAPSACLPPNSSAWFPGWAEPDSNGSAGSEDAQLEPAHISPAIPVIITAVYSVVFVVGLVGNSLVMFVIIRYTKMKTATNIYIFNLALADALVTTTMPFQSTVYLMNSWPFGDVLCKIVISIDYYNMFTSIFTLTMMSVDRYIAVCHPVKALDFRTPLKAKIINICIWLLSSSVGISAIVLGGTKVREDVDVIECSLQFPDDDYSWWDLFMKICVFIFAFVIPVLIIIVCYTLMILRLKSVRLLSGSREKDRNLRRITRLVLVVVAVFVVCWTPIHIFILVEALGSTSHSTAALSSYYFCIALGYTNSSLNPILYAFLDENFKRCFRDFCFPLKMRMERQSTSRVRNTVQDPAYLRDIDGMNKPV

Chain of Cytochrome P450 2D6 (P10635 whole entry): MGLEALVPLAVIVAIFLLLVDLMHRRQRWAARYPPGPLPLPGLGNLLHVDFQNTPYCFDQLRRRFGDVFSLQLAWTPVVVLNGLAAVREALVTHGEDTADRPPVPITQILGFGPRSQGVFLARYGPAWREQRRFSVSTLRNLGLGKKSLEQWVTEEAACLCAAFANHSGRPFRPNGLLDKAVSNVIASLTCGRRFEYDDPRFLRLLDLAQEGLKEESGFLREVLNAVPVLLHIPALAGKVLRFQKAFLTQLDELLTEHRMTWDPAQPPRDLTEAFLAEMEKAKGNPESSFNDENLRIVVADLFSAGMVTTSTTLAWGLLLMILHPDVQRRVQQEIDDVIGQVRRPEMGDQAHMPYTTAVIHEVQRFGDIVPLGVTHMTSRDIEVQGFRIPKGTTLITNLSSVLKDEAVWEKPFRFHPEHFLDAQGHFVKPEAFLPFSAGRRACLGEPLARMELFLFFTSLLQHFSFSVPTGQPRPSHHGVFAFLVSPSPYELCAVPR
Chain of UDP-galactopyranose mutase (P9WIQ1 whole entry): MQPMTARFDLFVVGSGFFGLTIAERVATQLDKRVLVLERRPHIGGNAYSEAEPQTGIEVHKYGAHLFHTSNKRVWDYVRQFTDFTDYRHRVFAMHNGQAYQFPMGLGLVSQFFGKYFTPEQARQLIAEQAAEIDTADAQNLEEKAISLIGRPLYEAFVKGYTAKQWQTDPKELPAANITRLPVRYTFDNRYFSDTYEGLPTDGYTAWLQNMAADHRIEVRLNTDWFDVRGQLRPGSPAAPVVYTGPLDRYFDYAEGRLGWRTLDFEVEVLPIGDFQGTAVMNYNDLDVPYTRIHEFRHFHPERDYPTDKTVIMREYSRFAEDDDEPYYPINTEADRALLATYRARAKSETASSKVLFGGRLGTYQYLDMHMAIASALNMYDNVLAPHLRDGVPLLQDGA
Chain of DNA dC->dU-editing enzyme APOBEC-3A (P31941 whole entry): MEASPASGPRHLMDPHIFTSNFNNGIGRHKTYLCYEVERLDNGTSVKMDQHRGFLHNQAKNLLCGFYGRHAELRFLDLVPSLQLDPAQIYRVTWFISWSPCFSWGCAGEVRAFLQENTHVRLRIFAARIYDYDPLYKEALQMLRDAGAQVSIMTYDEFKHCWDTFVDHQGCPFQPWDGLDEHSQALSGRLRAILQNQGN
Chain of Phosphoethanolamine/phosphocholine phosphatase (Q8TCT1 whole entry): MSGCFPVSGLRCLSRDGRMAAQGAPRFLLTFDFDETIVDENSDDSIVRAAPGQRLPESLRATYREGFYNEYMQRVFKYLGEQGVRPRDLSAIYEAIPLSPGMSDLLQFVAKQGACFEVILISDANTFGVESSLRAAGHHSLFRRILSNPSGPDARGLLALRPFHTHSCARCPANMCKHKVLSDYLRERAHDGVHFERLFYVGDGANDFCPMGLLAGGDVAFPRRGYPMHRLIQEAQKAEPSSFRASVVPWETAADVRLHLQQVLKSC
Chain of DNA dC->dU-editing enzyme APOBEC-3G (Q9HC16 whole entry): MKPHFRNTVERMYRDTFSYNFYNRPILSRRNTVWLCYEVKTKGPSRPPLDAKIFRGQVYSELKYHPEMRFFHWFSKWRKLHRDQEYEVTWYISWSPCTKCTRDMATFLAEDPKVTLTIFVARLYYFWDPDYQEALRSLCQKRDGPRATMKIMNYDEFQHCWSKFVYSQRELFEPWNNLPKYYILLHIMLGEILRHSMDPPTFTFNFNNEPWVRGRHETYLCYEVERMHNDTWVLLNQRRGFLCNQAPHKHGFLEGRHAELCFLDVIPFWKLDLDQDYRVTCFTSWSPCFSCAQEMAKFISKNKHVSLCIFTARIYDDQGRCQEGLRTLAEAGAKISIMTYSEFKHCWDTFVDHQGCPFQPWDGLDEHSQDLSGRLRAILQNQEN
Chain of Keap1/Nrf2 (Q16236 whole entry): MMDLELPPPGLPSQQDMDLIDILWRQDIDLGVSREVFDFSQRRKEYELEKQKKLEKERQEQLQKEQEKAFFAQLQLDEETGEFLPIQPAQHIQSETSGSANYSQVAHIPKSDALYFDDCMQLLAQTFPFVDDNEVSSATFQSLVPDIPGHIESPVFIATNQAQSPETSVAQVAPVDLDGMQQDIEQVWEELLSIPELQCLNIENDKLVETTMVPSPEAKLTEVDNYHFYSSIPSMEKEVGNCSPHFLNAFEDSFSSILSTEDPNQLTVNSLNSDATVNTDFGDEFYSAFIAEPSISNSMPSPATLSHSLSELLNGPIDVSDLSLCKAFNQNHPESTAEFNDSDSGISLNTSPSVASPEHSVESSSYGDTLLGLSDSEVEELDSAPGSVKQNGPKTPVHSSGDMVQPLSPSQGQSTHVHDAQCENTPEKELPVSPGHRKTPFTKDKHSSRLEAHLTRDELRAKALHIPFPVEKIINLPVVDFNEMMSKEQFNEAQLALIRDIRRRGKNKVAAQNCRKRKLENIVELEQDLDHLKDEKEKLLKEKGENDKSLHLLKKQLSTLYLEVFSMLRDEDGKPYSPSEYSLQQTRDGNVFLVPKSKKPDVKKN
Chain of Keap1/Nrf2 (Q14145 whole entry): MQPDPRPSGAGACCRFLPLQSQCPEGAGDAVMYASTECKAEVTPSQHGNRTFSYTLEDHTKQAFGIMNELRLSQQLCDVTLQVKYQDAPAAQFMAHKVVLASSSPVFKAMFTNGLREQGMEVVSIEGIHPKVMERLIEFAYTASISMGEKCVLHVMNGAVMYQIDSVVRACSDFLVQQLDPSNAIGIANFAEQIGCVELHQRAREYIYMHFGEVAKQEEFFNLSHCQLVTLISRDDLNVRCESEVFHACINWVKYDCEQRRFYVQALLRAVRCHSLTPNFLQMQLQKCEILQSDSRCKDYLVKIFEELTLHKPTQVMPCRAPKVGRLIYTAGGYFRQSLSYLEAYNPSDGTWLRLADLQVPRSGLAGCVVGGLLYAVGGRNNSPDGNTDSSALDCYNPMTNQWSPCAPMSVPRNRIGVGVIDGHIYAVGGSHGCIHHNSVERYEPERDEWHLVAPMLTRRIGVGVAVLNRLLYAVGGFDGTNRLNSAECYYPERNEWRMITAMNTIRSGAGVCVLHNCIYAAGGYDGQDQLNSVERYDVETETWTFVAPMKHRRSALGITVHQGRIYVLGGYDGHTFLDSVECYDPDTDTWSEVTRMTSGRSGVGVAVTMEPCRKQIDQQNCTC
Chain of Cytochrome P450 3A4 (P08684 whole entry): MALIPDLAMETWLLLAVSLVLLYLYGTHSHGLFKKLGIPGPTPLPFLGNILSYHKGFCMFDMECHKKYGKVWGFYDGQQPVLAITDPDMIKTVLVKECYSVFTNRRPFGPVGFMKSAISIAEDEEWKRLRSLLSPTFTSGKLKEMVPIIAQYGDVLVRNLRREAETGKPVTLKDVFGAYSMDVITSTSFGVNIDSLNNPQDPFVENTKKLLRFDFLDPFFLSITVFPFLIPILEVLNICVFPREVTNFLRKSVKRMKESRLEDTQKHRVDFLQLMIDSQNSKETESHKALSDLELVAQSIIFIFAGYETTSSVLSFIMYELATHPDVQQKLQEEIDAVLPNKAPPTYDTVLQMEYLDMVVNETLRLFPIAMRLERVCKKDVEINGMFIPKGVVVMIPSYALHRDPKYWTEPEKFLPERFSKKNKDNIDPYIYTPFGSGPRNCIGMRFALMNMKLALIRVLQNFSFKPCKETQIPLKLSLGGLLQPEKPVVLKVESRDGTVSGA
Chain of Vasopressin V1a receptor (P37288 whole entry): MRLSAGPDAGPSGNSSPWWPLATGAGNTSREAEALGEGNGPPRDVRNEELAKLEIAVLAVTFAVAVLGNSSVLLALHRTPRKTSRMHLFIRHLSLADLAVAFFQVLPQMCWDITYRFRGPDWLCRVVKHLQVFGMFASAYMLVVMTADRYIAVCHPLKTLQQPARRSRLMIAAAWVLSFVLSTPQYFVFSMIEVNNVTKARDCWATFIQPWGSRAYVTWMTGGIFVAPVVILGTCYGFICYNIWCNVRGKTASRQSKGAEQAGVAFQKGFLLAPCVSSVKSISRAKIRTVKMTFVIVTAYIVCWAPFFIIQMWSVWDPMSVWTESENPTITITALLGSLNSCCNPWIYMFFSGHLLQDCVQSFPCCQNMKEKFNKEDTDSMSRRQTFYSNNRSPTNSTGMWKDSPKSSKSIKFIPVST
Chain of Oxytocin receptor (P30559 whole entry): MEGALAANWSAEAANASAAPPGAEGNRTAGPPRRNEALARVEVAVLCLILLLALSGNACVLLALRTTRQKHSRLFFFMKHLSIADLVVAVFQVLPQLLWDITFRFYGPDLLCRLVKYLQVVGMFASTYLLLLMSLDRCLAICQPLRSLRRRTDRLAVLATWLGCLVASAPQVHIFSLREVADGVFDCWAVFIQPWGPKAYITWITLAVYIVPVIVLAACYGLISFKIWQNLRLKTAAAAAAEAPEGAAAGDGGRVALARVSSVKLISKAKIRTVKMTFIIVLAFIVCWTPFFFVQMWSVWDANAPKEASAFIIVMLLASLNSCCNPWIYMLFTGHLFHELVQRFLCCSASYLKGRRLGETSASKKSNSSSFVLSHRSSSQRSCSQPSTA

CCNC(=O)COC(=O)c1cc(O)nc2ccccc12
inconclusive: AC50 [1] | AC50 [2] 15.8 µM

CCOc1ccc(-[n+]2c(-c3ccc(OC)cc3)cn3c2CCCCC3)cc1
active: EC50 [4] 0.48 µM | AC50 [5] 2.13 µM | AC50 [6] 48 µM | AC50 [9] 0.312 µM
inactive: IC50 [3] > 80 µM | EC50 [7] > 150 µM | IC50 [8] > 80 µM

O=C1c2cccc3c(N4CCCCC4)ccc(c23)C(=O)N1CCO
> 120 µM (not active): EC50 [16]
active: AC50 [10] 151 µM | EC50 [11] 164 µM | EC50 [12] 65.2 µM | EC50 [13] 67.5 µM | EC50 [14] 16.5 µM | EC50 [15] 94.8 µM | EC50 [17] > 3.32 µM | EC50 [18] 114 µM | EC50 [19] 4.75 µM

COC(=O)C[n+]1cccc2ccccc21
active: AC50 [10] 35.7 µM | AC50 [20] 6.51 µM | IC50 [21] 2.81 µM | IC50 [22] 4.46 µM | AC50 [23] 20.8 µM

Cc1ccc(CC(=O)N2CC(C)OC(C)C2)cc1 (stereo not given)
inconclusive: AC50 [24] | AC50 [1]

CCN(CC)S(=O)(=O)c1ccc(-n2sc3ccccc3c2=O)cc1
inactive: IC50 [25] 6.21 µM | IC50 [26] > 100 µM | IC50 [27] > 50 µM

Brc1ccc(-c2nnc(SCc3ccccc3)n2Cc2ccco2)cc1
inactive: EC50 [28] > 20 µM
